Patent US20070128217A1 (priority 2003, published 2007)

Assays:
[1] = system: rabbit serum obtained by immunizing a rabbit with the SARS-CoV strain Frankfurt 1; type: binding; set-up: Binding of a rabbit serum to linear peptides / Binding of a rabbit serum to looped peptides / Rabbit serum linear peptides / Rabbit serum looped peptides / Binding of a rabbit serum to linear peptides of protein N of SARS-CoV Urbani (Rabbit serum linear peptides) / Binding of a rabbit serum to looped/cyclic peptides of protein N of SARS-CoV Urbani (Rabbit serum looped peptides): unit not given here
[2] = system: recombinant human anti-SARS-CoV antibody 03-018; type: binding; set-up: Binding of antibody 03-018 to linear peptides of the N protein of SARS-CoV Urbani / Binding of antibody 03-018 to looped/cyclic peptides of the N protein of SARS-CoV Urbani: unit not given here
[3] = system: control sera (pooled serum of ten healthy LUMC hospital workers; commercial negative donor pooled serum from the Dutch bloodbank); type: binding, human; set-up: Binding of Control serum LUMC to linear peptides / Binding of Control serum Blood-bank to linear peptides / Binding of Control serum LUMC to looped peptides / Binding of Control Serum Blood-Bank to Looped peptides / Binding of Control serum LUMC to linear peptides of the protein M of SARS-CoV Urbani / Binding of Control serum Blood-bank to linear peptides of the protein M of SARS-CoV Urbani / Binding of Control serum LUMC to looped peptides of the protein M of SARS-CoV Urbani / Binding of Control Serum Blood-Bank to Looped peptides of the protein M of SARS-CoV Urbani: unit not given here
[4] = system: antibodies in sera from SARS patients (sera 1a, 1b, 2, 6, 37, 62, London, SARS-yellow, SARS-green); type: binding, human; set-up: Binding of serum 6 to linear peptides of protein X1 of SARS-CoV Urbani / Binding of serum 37 to linear peptides of protein X1 of SARS-CoV Urbani / Binding of serum 6 to looped/cyclic peptide (PEPSCAN-ELISA) / Binding of serum 37 to looped/cyclic peptide (PEPSCAN-ELISA) / Binding of serum 37 to looped/cyclic peptides of protein X1 of SARS-CoV Urbani / Binding of serum 6 to linear peptides of protein X2 / Binding of serum 37 to linear peptides of protein X2 / Binding of serum 37 to looped/cyclic peptides of protein X2 of SARS-CoV Urbani / Binding of serum 6 to linear peptides of protein M of SARS-CoV Urbani / Binding of serum 37 to linear peptides of protein M of SARS-CoV Urbani / Binding of serum 6 to looped/cyclic peptides of protein M of SARS-CoV Urbani / Binding of serum 37 to looped/cyclic peptides of protein M of SARS-CoV Urbani / Binding of serum 6 to linear peptides of protein X3 of SARS-CoV Urbani / Binding of serum 37 to linear peptides of protein X3 of SARS-CoV Urbani / Binding of serum 37 to looped/cyclic peptides of protein X3 of SARS-CoV Urbani / Binding of serum 6 to linear peptides of protein X4 of SARS-CoV Urbani / Binding of serum 37 to linear peptides of protein X4 of SARS-CoV Urbani / Binding of serum 37 to looped/cyclic peptides of protein X4 of SARS-CoV Urbani / Binding of serum 6 to linear peptides of protein X5 of SARS-CoV Urbani / Binding of serum 37 to linear peptides of protein X5 of SARS-CoV Urbani / Binding of serum 37 to looped/cyclic peptides of protein X5 of SARS-CoV Urbani / Binding of serum 6 to linear peptides of protein N of SARS-CoV Urbani / Binding of serum 37 to linear peptides of protein N of SARS-CoV Urbani / Binding of serum 6 to linear peptide (PEPSCAN-ELISA) / Binding of serum 1a to looped/cyclic peptides of protein N of SARS-CoV Urbani / Binding of serum 1b to looped/cyclic peptides of protein N of SARS-CoV Urbani / Binding of serum 2 to looped/cyclic peptides of protein N of SARS-CoV Urbani / Binding of serum 6 to looped/cyclic peptides of protein N of SARS-CoV Urbani / Binding of serum 37 to looped/cyclic peptides of protein N of SARS-CoV Urbani / Binding of serum 62 to looped/cyclic peptides of protein N of SARS-CoV Urbani / Binding of serum London to looped/cyclic peptides of protein N of SARS-CoV Urbani / Binding of serum SARS-green to looped/cyclic peptides of protein N of SARS-CoV Urbani: unit not given here

| Sequence | Binding of a rabbit serum to linear peptides of protein N of SARS-CoV Urbani (Rabbit serum linear peptides) [1] | Binding of a rabbit serum to looped/cyclic peptides of protein N of SARS-CoV Urbani (Rabbit serum looped peptides) [1] | Binding of antibody 03-018 to linear peptides of the N protein of SARS-CoV Urbani [2] | Binding of antibody 03-018 to looped/cyclic peptides of the N protein of SARS-CoV Urbani [2] | Control Serum Blood-Bank Looped peptides [3] | Control serum Blood-bank linear peptides [3] | Control serum LUMC linear peptides [3] | Control serum LUMC looped peptides [3] | Binding of serum 1a to linear peptides of protein N of SARS-CoV Urbani [4] | Binding of serum 1a to looped/cyclic peptides of protein N of SARS-CoV Urbani [4] | Binding of serum 1b to linear peptides of protein N of SARS-CoV Urbani [4] | Binding of serum 1b to looped/cyclic peptides of protein N of SARS-CoV Urbani [4] | Binding of serum 2 to linear peptides of protein N of SARS-CoV Urbani [4] | Binding of serum 2 to looped/cyclic peptides of protein N of SARS-CoV Urbani [4] | Binding of serum 6 to looped/cyclic peptides of protein N of SARS-CoV Urbani [4] | Binding of serum 37 to looped/cyclic peptides of protein N of SARS-CoV Urbani [4] | Binding of serum 62 to looped/cyclic peptides of protein N of SARS-CoV Urbani [4] | Binding of serum London to looped/cyclic peptides of protein N of SARS-CoV Urbani [4] | Binding of serum SARS-green to looped/cyclic peptides of protein N of SARS-CoV Urbani [4] | Binding of serum SARS-yellow to looped/cyclic peptides of protein N of SARS-CoV Urbani [4] | other results |
| --- | --- | --- | --- | --- | --- | --- | --- | --- | --- | --- | --- | --- | --- | --- | --- | --- | --- | --- | --- | --- | --- |
| FFGMSRIGMEVTPSG | 0.2 | 0.4 | 0.1 | 0.2 | 0.5 | 0.8 | 0.7 | 0.5 | 0.3 | 0.3 | 0.1 | 0.2 | 0.2 | 0.4 | 0.1 | 0.5 | 0.4 | 0.3 | 0.1 | 0.4 | Binding of serum 6 to linear peptides of protein N of SARS-CoV Urbani [4]: 0.2; Binding of serum 37 to linear peptides of protein N of SARS-CoV Urbani [4]: 0.7; Binding of serum 62 to linear peptides of protein N of SARS-CoV Urbani [4]: 0.7; Binding of serum London to linear peptides of protein N of SARS-CoV Urbani [4]: 0.6; Binding of serum SARS-green to linear peptides of protein N of SARS-CoV Urbani [4]: 0.3; Binding of serum SARS-yellow to linear peptides of protein N of SARS-CoV Urbani [4]: 0.8 |
| FGDQDLIRQGTDYKH | 0.1 | 0.5 | 0.1 | 0.2 | – | – | – | – | – | 0.4 | – | 0.3 | – | 0.4 | 0.2 | 0.7 | 0.6 | 0.4 | 0.7 | 0.5 | Binding of Control Serum Blood-Bank to Looped peptides [3]: 0.6; Binding of Control serum Blood-bank to linear peptides [3]: 0.8; Binding of Control serum LUMC to linear peptides [3]: 0.7; Binding of Control serum LUMC to looped peptides [3]: 0.7; Binding of serum 1a to linear peptide (PEPSCAN-ELISA) [4]: 0.3; Binding of serum 1b to linear peptide (PEPSCAN-ELISA) [4]: 0.2; Binding of serum 2 to linear peptide (PEPSCAN-ELISA) [4]: 0.2; Binding of serum 6 to linear peptide (PEPSCAN-ELISA) [4]: 0.2; Binding of serum 37 to linear peptide (PEPSCAN-ELISA) [4]: 0.7; Binding of serum 62 to linear peptide (PEPSCAN-ELISA) [4]: 0.7; Binding of serum London to linear peptide (PEPSCAN-ELISA) [4]: 0.6; Binding of serum SARS-green to linear peptide (PEPSCAN-ELISA) [4]: 0.7; Binding of serum SARS-yellow to linear peptide (PEPSCAN-ELISA) [4]: 0.6 |
| FGMSRIGMEVTPSGT | 0.2 | 0.3 | 0.1 | 0.2 | 0.5 | 0.8 | 0.7 | 0.5 | 0.3 | 0.3 | 0.1 | 0.2 | 0.2 | 0.4 | 0.2 | 0.4 | 0.3 | 0.3 | 0.2 | 0.3 | Binding of serum 6 to linear peptides of protein N of SARS-CoV Urbani [4]: 0.2; Binding of serum 37 to linear peptides of protein N of SARS-CoV Urbani [4]: 0.8; Binding of serum 62 to linear peptides of protein N of SARS-CoV Urbani [4]: 0.7; Binding of serum London to linear peptides of protein N of SARS-CoV Urbani [4]: 0.6; Binding of serum SARS-green to linear peptides of protein N of SARS-CoV Urbani [4]: 0.3; Binding of serum SARS-yellow to linear peptides of protein N of SARS-CoV Urbani [4]: 0.7 |
